Results: ChEMBL document CHEMBL1201862, “PubChem BioAssay data set” (2004)
One block for each compound: values may come before it. Calls of active or inactive are those of the source.

Columns and labels:
Troponin, cardiac muscle = Troponin, cardiac muscle (Homo sapiens, UniProt P19429+P45379+P63316); assay: Fluorescence-based biochemical high throughput dose response assay for activators of the calcium sensitivity of cardiac Regulated Thin Filaments (RTF). [Related pubchem assays (depositor defined):AID493008, AID493018, AID504382, AID504383]; type: protein-complex assay
[1] = molecular target: FAD-linked sulfhydryl oxidase ALR (Homo sapiens, UniProt P55789); assay: inhibitors of human ALR sulfhydryl oxidase, dose response, biochemical, H2O2 detection, luminescence, cherry-pick (AID 493248)
Phospholipase A2 = Phospholipase A2 (Homo sapiens, UniProt P04054); type: functional;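 also: confirmatory dose-response counterscreen on phospholipase A2, testing hits that came from an ultra-high-throughput screen for ATG4B inhibitors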
Cysteine protease ATG4B = molecular target: T1, Cysteine protease ATG4B (Homo sapiens, UniProt Q9Y4P1); type: functional;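 also: Fluorescence-based dose-response confirmation assay measuring inhibition of ATG4B activity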
T1 sequence (Q9Y4P1 whole entry): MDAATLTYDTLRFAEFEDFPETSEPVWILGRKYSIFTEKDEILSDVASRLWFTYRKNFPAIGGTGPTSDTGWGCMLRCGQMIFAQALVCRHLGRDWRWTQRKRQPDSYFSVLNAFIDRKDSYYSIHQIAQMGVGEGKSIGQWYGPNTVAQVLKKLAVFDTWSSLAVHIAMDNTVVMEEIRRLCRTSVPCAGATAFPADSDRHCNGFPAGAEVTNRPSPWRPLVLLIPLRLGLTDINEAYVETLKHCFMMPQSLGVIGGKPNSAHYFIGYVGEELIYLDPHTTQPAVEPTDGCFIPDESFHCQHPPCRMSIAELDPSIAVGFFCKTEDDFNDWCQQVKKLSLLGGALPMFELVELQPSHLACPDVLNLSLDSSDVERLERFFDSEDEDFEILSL

[2] = molecular target: T2, Heat shock factor protein 1 (Mus musculus, UniProt P38532); assay: HSF1 potentiators in luciferase reporter cells, confirmation, cell-based, NIH3T3, luminescence, dose retest (AID 435004); type: functional;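 also: stress induced by proteasome inhibitor MG132 added 30 min after compound; luciferase reporter driven by HSF1 response element in NIH3T3 cells; actives raise luminescence as potentiators of the MG132 stress response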
T2 sequence (P38532 whole entry): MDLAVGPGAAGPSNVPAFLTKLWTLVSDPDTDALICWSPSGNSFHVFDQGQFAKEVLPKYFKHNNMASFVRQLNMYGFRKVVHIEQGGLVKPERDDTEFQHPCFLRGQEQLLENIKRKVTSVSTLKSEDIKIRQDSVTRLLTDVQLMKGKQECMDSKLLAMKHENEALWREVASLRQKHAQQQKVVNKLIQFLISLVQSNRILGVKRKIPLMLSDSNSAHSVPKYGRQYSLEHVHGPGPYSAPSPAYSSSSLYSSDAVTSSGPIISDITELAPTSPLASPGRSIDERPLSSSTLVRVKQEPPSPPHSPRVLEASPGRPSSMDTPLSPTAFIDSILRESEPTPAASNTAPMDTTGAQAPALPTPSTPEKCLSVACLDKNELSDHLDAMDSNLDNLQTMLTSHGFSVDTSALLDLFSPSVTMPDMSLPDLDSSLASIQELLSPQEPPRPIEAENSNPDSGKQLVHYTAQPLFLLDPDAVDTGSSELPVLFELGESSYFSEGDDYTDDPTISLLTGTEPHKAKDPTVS

[3] = intracellular Trypanosoma cruzi inhibitors in host cells – cell-based, plate reader, cherry-pick samples, set 3, dose response (AID 651818); type: functional;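 also: compounds incubated with infected cells for about four days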
Cytochrome P450 3A4 = Cytochrome P450 3A4 (Homo sapiens, UniProt P08684);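 also: CYP3A4 tested as one member of a cytochrome P450 panel screen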
Cytochrome P450 1A2 = molecular target: T3, Cytochrome P450 1A2 (Homo sapiens, UniProt P05177);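 also: PubChem cytochrome P450 panel assay, CYP1A2 panel member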
T3 sequence (P05177 whole entry): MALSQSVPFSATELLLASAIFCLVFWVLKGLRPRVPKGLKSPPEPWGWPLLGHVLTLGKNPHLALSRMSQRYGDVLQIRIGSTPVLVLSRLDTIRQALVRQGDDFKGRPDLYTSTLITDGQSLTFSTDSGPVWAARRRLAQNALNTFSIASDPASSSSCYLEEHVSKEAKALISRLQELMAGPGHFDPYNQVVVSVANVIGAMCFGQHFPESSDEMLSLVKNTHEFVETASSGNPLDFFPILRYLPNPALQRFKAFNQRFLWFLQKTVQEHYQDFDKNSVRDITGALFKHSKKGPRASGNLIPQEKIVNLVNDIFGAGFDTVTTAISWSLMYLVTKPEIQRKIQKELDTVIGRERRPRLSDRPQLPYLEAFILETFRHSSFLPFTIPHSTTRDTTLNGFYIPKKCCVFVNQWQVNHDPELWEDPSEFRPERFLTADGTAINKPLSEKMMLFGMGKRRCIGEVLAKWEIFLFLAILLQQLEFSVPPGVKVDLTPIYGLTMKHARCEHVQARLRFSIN

Cytochrome P450 2D6 = Cytochrome P450 2D6 (Homo sapiens, UniProt P10635);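 also: CYP2D6 member of a cytochrome P450 panel assay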
HEK293 = assay: inhibitors of LMP1-driven NF-kB reporter, dose response, cell-based, HEK293, luciferase, cherry-pick (AID 588343); type: functional; conditions: Homo sapiens
[4] = HEp-2 cell cytotoxicity, dose response, cytotoxicity control for RSV inhibitor project, HTS (AID 2410); type: functional; conditions: human respiratory syncytial virus
[5] = molecular target: Glucose-6-phosphate 1-dehydrogenase (Homo sapiens, UniProt P11413); assay: human G6PD enzyme inhibitors, dose response, selectivity assay for P. falciparum G6PD inhibitor project, biochemical, fluorescence (AID 504792); type: functional
[6] = molecular target: T4, High affinity choline transporter 1 (Homo sapiens, UniProt Q9GZV3); assay: CHT inhibitors, dose response, cell-based, 5-point CRC, membrane potential dye (AID 504840); type: functional
T4 sequence (Q9GZV3 whole entry): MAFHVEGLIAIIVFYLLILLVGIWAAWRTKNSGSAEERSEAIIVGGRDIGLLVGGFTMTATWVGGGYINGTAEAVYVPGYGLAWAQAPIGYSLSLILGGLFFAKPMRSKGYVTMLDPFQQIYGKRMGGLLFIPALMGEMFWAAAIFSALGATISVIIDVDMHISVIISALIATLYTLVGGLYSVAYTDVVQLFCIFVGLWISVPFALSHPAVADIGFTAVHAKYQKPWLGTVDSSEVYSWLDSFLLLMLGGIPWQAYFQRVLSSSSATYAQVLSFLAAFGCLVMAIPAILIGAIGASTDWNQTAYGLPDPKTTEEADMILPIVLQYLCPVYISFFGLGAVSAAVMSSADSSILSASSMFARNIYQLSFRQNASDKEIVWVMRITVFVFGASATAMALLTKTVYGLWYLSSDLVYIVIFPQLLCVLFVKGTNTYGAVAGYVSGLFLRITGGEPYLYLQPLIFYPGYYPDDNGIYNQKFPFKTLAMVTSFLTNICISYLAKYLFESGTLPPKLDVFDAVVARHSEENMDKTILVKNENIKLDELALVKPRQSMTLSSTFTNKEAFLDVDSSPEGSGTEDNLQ

[7] = Luminescence Cell-Based Dose Retest to Confirm Inhibitors of Cancer Stem Cells. [Related pubchem assays (depositor defined):AID2717, AID2721]; type: functional; conditions: Homo sapiens
[8] = molecular target: Glyceraldehyde-3-phosphate dehydrogenase (Homo sapiens, UniProt P04406)
[9] = molecular target: T5, Alkaline phosphatase, tissue-nonspecific isozyme (Homo sapiens, UniProt P05186); assay: human TNAP enzyme inhibitors, SAR follow-up, biochemical, luminescent, dose response (AID 1056)
T5 sequence (P05186 whole entry): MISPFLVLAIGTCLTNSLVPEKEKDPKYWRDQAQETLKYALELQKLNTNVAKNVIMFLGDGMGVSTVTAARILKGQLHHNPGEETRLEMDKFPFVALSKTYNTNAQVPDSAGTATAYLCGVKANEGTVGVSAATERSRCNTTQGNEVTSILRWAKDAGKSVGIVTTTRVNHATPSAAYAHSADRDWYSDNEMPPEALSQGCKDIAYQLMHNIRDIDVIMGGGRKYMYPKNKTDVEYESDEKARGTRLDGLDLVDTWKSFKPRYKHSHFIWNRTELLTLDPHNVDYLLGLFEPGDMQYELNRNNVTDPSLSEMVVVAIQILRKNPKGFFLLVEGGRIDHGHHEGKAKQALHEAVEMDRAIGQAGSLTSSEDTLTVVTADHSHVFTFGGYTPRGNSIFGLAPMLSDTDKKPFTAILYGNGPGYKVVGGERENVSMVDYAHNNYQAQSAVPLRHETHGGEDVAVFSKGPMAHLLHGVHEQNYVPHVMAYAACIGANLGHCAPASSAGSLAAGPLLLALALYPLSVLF

[10] = inhibitors of intracellular T. cruzi replication, confirmation, NIH3T3 host cells, beta-gal luminescence (AID 2044); type: functional, cell-based;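 also: intracellular parasites grown in NIH/3T3 mouse fibroblasts as host cells; luminescent beta-galactosidase reporter signal from transgenic T. cruzi replicating inside host cells; inhibitors lower the luminescence signal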
Protein Wnt-3a = Protein Wnt-3a (Mus musculus, UniProt P27467); assay: Wnt3a-driven reporter signaling inhibition, dose response, selectivity assay for Gli-SUFU antagonist project, Wnt-LIGHT cells, luminescence (AID 651570); type: functional; conditions: read-out: IC50_Mean;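 also: Wnt-LIGHT reporter cells stimulated with conditioned medium from Wnt3a-producing cells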
[11] = HepG2 cell cytotoxicity, dose response, cytotoxicity control for Shn3 inhibitor project, CellTiter-Glo, cherry-picked (AID 624134); type: functional, cell-based
[12] = Shn3 3'UTR reporter inhibitors, dose response, cell-based, Clone20 osteoblasts, firefly luciferase, cherry-picked (AID 624132); type: functional;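 also: firefly luciferase luminescence from reporter carrying the Shn3 3'UTR in osteoblasts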
[13] = cytotoxicity toward NIH3T3 fibroblasts, dose response, counter-screen, cell-based, ATP luminescence, mouse fibroblasts (AID 2010); type: functional;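 also: cells exposed to compound for about 90 hours before reading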
[14] = control 3'UTR Renilla luciferase suppression, dose response, counter-screen for Shn3 inhibitor project, cell-based, Clone20-Shn3RL, cherry-picked (AID 624133); type: functional

Sequence of Glucose-6-phosphate 1-dehydrogenase (P11413 whole entry): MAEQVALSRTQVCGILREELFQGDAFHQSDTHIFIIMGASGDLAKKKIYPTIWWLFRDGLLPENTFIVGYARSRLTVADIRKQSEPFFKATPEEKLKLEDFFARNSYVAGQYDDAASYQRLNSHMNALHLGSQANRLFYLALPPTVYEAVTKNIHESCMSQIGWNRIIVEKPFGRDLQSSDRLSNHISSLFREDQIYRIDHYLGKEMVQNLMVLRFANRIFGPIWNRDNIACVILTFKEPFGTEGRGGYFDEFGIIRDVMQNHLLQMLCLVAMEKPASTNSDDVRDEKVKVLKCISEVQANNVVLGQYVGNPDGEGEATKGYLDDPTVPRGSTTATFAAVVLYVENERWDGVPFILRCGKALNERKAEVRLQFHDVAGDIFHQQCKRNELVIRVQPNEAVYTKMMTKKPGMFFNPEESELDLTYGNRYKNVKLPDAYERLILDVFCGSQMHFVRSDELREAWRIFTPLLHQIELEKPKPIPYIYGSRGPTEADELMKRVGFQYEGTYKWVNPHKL
Sequence of Glyceraldehyde-3-phosphate dehydrogenase (P04406 whole entry): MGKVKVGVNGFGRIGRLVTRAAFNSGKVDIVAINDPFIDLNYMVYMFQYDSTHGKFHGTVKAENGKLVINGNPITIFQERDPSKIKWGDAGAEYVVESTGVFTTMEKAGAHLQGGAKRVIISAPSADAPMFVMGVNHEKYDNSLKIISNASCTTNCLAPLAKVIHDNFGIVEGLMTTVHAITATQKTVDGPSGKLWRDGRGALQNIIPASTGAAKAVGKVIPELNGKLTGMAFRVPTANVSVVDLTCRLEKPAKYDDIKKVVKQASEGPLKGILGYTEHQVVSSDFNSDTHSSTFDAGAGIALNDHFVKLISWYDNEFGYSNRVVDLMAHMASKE
Sequence of Phospholipase A2 (P04054 whole entry): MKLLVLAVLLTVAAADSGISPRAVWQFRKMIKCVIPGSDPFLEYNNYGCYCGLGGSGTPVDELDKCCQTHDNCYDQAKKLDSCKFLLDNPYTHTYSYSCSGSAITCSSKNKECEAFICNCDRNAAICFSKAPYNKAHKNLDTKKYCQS
Sequence of Protein Wnt-3a (P27467 whole entry): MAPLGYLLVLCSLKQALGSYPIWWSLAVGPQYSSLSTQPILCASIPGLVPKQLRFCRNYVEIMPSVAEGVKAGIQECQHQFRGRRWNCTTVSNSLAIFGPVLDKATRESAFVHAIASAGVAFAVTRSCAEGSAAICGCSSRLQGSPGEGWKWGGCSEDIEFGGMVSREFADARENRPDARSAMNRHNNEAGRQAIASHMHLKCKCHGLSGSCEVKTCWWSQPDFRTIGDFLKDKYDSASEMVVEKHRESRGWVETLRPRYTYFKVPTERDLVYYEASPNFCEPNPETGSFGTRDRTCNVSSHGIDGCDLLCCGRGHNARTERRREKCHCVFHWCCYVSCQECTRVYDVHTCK
Sequence of FAD-linked sulfhydryl oxidase ALR (P55789 whole entry): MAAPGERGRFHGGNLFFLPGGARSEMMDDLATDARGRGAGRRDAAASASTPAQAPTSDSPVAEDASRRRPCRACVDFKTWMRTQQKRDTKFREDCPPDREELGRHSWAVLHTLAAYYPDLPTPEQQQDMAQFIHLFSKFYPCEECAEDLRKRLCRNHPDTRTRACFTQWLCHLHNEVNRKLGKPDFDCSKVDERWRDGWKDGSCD
Sequence of Cytochrome P450 2D6 (P10635 whole entry): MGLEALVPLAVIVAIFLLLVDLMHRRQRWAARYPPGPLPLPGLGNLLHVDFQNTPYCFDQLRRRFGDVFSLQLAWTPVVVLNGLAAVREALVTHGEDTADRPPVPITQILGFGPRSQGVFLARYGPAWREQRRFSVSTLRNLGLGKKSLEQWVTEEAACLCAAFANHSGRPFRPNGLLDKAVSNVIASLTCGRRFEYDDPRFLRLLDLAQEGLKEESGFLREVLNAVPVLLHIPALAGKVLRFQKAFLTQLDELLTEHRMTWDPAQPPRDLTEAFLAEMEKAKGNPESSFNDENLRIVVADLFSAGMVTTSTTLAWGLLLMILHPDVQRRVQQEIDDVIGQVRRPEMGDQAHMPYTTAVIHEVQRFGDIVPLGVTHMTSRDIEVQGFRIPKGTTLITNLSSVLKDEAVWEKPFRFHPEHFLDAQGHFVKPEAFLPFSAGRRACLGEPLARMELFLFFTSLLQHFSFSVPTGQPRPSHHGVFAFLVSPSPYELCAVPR
Sequence of Cytochrome P450 3A4 (P08684 whole entry): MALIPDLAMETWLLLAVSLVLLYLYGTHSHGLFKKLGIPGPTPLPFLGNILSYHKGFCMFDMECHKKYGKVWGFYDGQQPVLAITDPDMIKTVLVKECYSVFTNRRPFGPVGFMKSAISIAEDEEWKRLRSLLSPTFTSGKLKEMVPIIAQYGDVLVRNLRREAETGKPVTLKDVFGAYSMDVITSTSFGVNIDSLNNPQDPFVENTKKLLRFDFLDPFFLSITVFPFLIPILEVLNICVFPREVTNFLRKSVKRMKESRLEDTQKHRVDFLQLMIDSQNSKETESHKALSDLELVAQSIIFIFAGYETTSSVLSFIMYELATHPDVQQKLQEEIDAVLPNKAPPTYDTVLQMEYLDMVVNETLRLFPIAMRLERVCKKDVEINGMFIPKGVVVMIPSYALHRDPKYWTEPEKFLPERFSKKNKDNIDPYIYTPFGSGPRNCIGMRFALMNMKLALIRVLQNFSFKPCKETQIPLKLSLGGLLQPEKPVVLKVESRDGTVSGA

SMILES: C[C@@H]1CN([C@@H](C)CO)C(=O)c2cc(NC(=O)Nc3ccc(C(F)(F)F)cc3)ccc2O[C@@H]1CN(C)Cc1ccc(Cl)c(Cl)c1
AC50 [3]: 3.38 µM (active)

SMILES: COc1ccc2cc(-c3cc(C(=O)O)c4ccccc4n3)ccc2c1
IC50 (cells): 40.9 µM (active)
AC50 (HEK293): 1.05 µM (active)
CC50 [4]: 22.5 µM (active)

SMILES: Cc1ccc(-c2csc(NC(=O)c3ccccc3F)c2C(=O)O)cc1
IC50 [5]: > 80 µM (inactive)
IC50 [6]: 11.5 µM (active)

SMILES: Cc1ccc(/C=C/C(=O)NCC2COc3ccccc3O2)o1 (stereo not drawn)
IC50 [5]: > 80 µM (inactive)
AC50 [7]: 33.1 µM (active)

SMILES: Cc1ccc(S(=O)(=O)Nc2ccc3c(c2)C(=O)N([C@@H](C)CO)C[C@H](C)[C@H](CN(C)Cc2ccc(Cl)c(Cl)c2)O3)cc1
AC50 [3]: 5.67 µM (active)

SMILES: CC(C)(C)c1ccc(CN2C3=NCCCN3c3ccccc32)cc1
EC50 [10]: 0.387 µM (active)
IC50 (Protein Wnt-3a): 2.94 µM (active)
AC50 [11]: 21.8 µM (active)
AC50 [12]: 0.836 µM (active)
EC50 [13]: > 60 µM (not active)
AC50 [14]: 0.978 µM (active)

SMILES: C[C@H]1CN([C@@H](C)CO)C(=O)Cc2cc(NC(=O)Nc3ccccc3)ccc2O[C@H]1CN(C)Cc1ccc(C(F)(F)F)cc1
AC50 [3]: 3.26 µM (active)

Continued, values first:

EC50 (Troponin, cardiac muscle): 6.01 µM (active)
AC50 [1]: 2.74 µM (active)
SMILES: CCN(CC)c1ccc(/C=C2\SC(=N)NC2=O)cc1

IC50 (Phospholipase A2): 8.13 µM (active)
IC50 (Cysteine protease ATG4B): 9.78 µM (active)
EC50 [2]: > 260 µM (inactive)
SMILES: COC(=O)C(C)N(C(=O)c1ccc(C(=O)c2ccccc2)cc1)c1c(C)cccc1C (stereo not drawn)

AC50 (Cytochrome P450 3A4): inconclusive
AC50 (Cytochrome P450 1A2): 31.6 µM (inconclusive)
AC50 (Cytochrome P450 2D6): 5.01 µM (inconclusive)
SMILES: COC(=O)C(Cc1ccc(OC(=O)c2ccc(Cl)cc2)cc1)N1Cc2ccccc2C1=O (stereo not drawn)

IC50 [5]: > 80 µM (inactive)
SMILES: O=C1CCC[C@@H]2[C@@H](Cc3ccccc3)[C@H](N3CCN(c4ccccc4)CC3)C[C@@H]3CCN1[C@@H]32

IC50 [8]: > 100 µM (not active)
IC50 [9]: > 100 µM (inactive)
SMILES: COc1ccc(C)cc1S(=O)(=O)Nc1ccc2ccccc2c1

EC50 (Troponin, cardiac muscle): > 71.5 µM (inactive)
SMILES: Cn1nc(NC(=O)C2CCC2C(=O)O)c2c(F)cccc21 (stereo not drawn)
